Earlier results on six substances are cited in patent publication US7125702B2, “Process for the preparation of angiotensis converting enzyme (ACE) inhibitors and its use” (Council of Scientific and Industrial Research, priority 2003, dated 2006).

Data set [1] has as its target angiotensin I-converting enzyme (Homo sapiens, UniProt P12821). Particulars: read-out: IC50 (ACE inhibition).
Data set [2] relates to blood pressure.
Data set [3] concerns the target angiotensin-converting enzyme (Homo sapiens, UniProt P12821). To be noted: read-out: IC50 (ACE inhibition).
The test system of data set [4] is spontaneously hypertensive rats. To be noted: 30 mg/kg intravenous injection.

Sequence of angiotensin-converting enzyme (P12821 30-1306): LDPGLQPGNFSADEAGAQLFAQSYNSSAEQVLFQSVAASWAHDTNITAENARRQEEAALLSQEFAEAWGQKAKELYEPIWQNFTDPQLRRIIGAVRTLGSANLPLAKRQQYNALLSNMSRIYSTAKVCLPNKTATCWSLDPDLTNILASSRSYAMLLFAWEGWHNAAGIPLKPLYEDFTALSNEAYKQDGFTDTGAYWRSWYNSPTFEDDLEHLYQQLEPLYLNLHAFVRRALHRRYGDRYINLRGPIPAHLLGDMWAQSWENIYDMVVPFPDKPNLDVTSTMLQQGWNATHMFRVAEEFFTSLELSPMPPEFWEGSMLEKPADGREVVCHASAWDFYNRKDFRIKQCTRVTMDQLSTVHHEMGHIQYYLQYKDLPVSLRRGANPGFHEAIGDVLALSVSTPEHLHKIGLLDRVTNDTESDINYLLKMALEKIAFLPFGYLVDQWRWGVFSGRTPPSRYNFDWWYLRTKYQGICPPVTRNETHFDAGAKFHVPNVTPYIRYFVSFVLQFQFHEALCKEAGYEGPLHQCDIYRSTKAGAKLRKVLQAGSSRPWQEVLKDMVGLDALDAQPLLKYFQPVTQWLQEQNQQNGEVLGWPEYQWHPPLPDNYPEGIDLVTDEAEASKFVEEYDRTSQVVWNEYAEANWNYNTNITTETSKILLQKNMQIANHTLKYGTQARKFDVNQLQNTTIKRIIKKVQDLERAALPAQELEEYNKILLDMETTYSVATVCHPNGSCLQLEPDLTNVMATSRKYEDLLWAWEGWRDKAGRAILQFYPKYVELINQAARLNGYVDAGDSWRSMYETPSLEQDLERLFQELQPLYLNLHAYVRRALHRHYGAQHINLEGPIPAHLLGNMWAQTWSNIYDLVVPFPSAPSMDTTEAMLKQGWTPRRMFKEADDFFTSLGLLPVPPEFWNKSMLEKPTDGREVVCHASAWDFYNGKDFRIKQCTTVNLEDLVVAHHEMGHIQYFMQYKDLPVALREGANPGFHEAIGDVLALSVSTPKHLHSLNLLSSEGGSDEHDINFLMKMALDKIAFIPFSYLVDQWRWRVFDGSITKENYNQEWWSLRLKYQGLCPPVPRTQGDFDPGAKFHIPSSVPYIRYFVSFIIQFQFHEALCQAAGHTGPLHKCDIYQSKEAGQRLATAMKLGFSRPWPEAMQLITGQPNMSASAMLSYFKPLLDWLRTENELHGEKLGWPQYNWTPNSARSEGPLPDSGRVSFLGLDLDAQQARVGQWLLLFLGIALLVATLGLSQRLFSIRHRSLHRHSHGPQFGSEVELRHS
Sequence of angiotensin I-converting enzyme (P12821 30-1306): as above

Take Asp-Gly: the IC50 in data set [1] was 12300 nM.
For Ap-Leu-Pro, the half-maximal inhibitory concentration (IC50) in data set [1] was 4800 nM.
As to His-His-Leu, the “pressure in the aorta” value in data set [2] (synthetic peptide) is recorded as “significant pressure decrease”. In data set [2] (triple injections of the peptide), the “systolic blood pressure decrease” value is 61 mm Hg.
For the substance “Leu-Asn-Pro [tripeptide from thermolysin hydrolysate of α-zein]”, the IC50 in data set [3] is 1900 nM.
As to “Leu-Ser-Pro [tripeptide from thermolysin hydrolysate of α-zein]”, in data set [3], the half-inhibitory concentration (IC50) was 1700 nM.
On to “Leu-Arg-Pro [tripeptide from thermolysin hydrolysate of α-zein]”, for which the blood pressure decrease in data set [4] is recorded as 15 mm Hg. The IC50 in data set [3] was 270 nM.
